Where two headings read alike, the source gives them in different places.
How the values were obtained:
HEK-mFAP cells = assay: CellTiter-Blue cell viability assay with HEK-mFAP cells; type: cell-based, human
MCF-7 = assay: CellTiter-Blue cell viability assay: MCF-7; type: cell-based; conditions: Homo sapiens
HEK-Mock cells = assay: CellTiter-Blue cell viability assay with HEK-Mock cells; type: cell-based; conditions: Homo sapiens, 72 h
OVCAR-3 = assay: CellTiter-Blue cell viability assay: OVCAR-3; type: cell-based; conditions: Homo sapiens, 5061DOX assay 2, 72 hour incubation
SK-OV-3 = assay: CellTiter-Blue cell viability assay: SK-OV-3; type: cell-based; conditions: Homo sapiens, 5061DOX assay 2, 72 hour incubation
FAP = target: T1, FAP (Mus musculus, UniProt P97321); assay: Inhibition of FAP activity on HEK-mFAP cells; type: cell-based; conditions: 5061DOX assay 3
T1 construct: host or cells: HEK (human embryonic kidney) cells, stably transfected
T1 sequence (P97321 1-761): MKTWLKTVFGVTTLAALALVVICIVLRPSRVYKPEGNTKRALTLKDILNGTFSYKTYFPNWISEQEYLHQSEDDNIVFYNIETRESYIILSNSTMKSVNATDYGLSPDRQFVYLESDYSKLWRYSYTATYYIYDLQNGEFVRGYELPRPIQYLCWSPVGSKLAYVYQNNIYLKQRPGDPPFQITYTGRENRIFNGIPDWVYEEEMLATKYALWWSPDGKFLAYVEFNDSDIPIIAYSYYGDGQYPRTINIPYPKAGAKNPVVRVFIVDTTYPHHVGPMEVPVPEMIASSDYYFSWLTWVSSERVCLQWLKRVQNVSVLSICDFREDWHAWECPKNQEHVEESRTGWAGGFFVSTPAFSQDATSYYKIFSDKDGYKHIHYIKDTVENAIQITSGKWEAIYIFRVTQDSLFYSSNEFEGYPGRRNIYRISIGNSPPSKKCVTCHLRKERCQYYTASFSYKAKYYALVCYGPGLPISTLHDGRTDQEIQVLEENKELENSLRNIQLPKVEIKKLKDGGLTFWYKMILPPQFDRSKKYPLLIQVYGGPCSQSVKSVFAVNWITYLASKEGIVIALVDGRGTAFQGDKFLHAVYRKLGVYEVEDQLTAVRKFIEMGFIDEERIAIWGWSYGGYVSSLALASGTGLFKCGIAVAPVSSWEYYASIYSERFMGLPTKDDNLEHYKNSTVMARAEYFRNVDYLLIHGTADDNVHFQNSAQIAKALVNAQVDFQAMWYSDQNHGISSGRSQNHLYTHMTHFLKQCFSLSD

HEK-Mock = assay: Cytotoxicity against tumor lines: HEK-Mock; type: cell-based; conditions: Homo sapiens, compound alone
Experimental: (§1) Cells from various tumor-derived cell lines were incubated with doxorubicin or 3099DOX, the latter in the presence or absence of FAP, and the EC50 for each was determined.

HPAF-II = assay: Cytotoxicity against tumor lines: HPAF-II; type: cell-based; conditions: Homo sapiens, compound alone
Experimental: as §1

HT-29 = assay: Cytotoxicity against tumor lines: HT-29; type: cell-based; conditions: Homo sapiens, compound alone
Experimental: as §1

HEK-mFAP = assay: Cytotoxicity against tumor lines: HEK-mFAP; type: cell-based; conditions: Homo sapiens, compound alone
Experimental: as §1

BxPC-3 = assay: Cytotoxicity against tumor lines: BxPC-3; type: cell-based; conditions: Homo sapiens, compound alone
Experimental: as §1

[1] = 5061DOX assay 2, 72 hour incubation, read-out: EC50 (prodrug alone)
[2] = read-out: EC50 (prodrug + 25 nM FAP)
[3] = read-out: EC50 (prodrug + 100 uM 5057)
[4] = read-out: EC50 (doxorubicin alone)

SMILES: COc1cccc2c1C(=O)c1c(O)c3c(c(O)c1C2=O)C[C@@](O)(C(=O)CO)C[C@@H]3OC1CC(NC(=O)[C@@H]2CCCN2C(=O)[C@@H](C)NC(=O)c2ccnc3cccc(Br)c23)C(O)C(C)O1 (stereo partly drawn) [Compound 5061DOX]
- EC50 (HEK-mFAP cells; 5061DOX assay 2, 72 hour incubation, read-out: EC50 (prodrug + 100 uM 5057)): > 100 µM
- EC50 (HEK-mFAP cells; [1]): > 100 µM
- EC50 (HEK-mFAP cells; Homo sapiens, 5061DOX assay 1, 72 hour incubation, read-out: EC50 (prodrug + 100 uM 5057)): > 100 µM
- EC50 (HEK-mFAP cells; Homo sapiens, 5061DOX assay 1, 72 hour incubation, read-out: EC50 (prodrug alone)): > 100 µM
- EC50 (MCF-7; MCF7, 5061DOX assay 2, 72 hour incubation, read-out: EC50 (prodrug + 25 nM FAP)): > 100 µM
- EC50 (MCF-7; MCF7, 5061DOX assay 2, 72 hour incubation, read-out: EC50 (prodrug + 100 uM 5057)): > 100 µM
- EC50 (MCF-7; MCF7, 5061DOX assay 2, 72 hour incubation, read-out: EC50 (prodrug alone)): > 100 µM
- EC50 (HEK-Mock cells; 5061DOX assay 1, 72 hour incubation, read-out: EC50 (prodrug + 25 nM FAP)): 0.28 µM
- EC50 (HEK-Mock cells; 5061DOX assay 1, 72 hour incubation, read-out: EC50 (prodrug + 50 nM PREP)): > 100 µM
- EC50 (HEK-Mock cells; 5061DOX assay 1, 72 hour incubation, read-out: EC50 (prodrug + 100 uM 5057)): > 100 µM
- EC50 (HEK-Mock cells; 5061DOX assay 1, 72 hour incubation, read-out: EC50 (prodrug alone)): > 100 µM
- EC50 (HEK-Mock cells; 5061DOX assay 2, 72 hour incubation, read-out: EC50 (prodrug + 25 nM FAP)): 0.25 µM
- EC50 (HEK-Mock cells; [1]): > 100 µM
- EC50 (OVCAR-3; [2]): 1.5 µM
- EC50 (OVCAR-3; [3]): > 100 µM
- EC50 (OVCAR-3; read-out: EC50 (prodrug alone)): > 100 µM
- EC50 (SK-OV-3; [2]): 0.9 µM
- EC50 (SK-OV-3; [3]): > 100 µM
- EC50 (SK-OV-3; read-out: EC50 (prodrug alone)): > 100 µM
- IC50 (FAP): > 10 µM

SMILES: COc1cccc2c1C(=O)c1c(O)c3c(c(O)c1C2=O)C[C@@](O)(C(=O)CO)C[C@@H]3O[C@H]1C[C@H](N)[C@H](O)[C@H](C)O1 [doxorubicin, reference compound]
- EC50 (HEK-Mock): 0.05 µM
- EC50 (HEK-mFAP cells; Homo sapiens, 72 h, 5057DOX assay 2, 72 hour incubation, read-out: EC50 (doxorubicin alone)): 0.059 µM
- EC50 (HEK-mFAP cells; Homo sapiens, 72 h, 5057DOX assay 3, 72 hour incubation, read-out: EC50 (doxorubicin alone)): 0.24 µM
- EC50 (HEK-mFAP cells; Homo sapiens, 72 h, 5057DOX assay 4, 72 hour incubation, read-out: EC50 (doxorubicin alone)): 0.42 µM
- EC50 (HEK-mFAP cells; Homo sapiens, 72 h, 5057DOX assay 8, 72 hour incubation, read-out: EC50 (doxorubicin)): 0.4 µM
- EC50 (HEK-mFAP cells; Homo sapiens, 72 h, 5061DOX assay 1, 72 hour incubation, read-out: EC50 (doxorubicin alone)): 0.42 µM
- EC50 (HEK-mFAP cells; Homo sapiens, 72 h, 5107DOX assay, 72 hour incubation, read-out: EC50 (doxorubicin)): 0.39 µM
- EC50 (MCF-7; MCF7, 5057DOX assay 5, 72 hour incubation, read-out: EC50 (doxorubicin alone)): 54 µM
- EC50 (HPAF-II): 2 µM
- EC50 (HEK-Mock cells; 5057DOX assay 1, 72 hour incubation, read-out: EC50 (doxorubicin alone)): 0.036 µM
- EC50 (HEK-Mock cells; 5057DOX assay 2, 72 hour incubation, read-out: EC50 (doxorubicin alone)): 0.034 µM
- EC50 (HEK-Mock cells; 5057DOX assay 3, 72 hour incubation, read-out: EC50 (doxorubicin alone)): 0.095 µM
- EC50 (HEK-Mock cells; 5057DOX assay 4, 72 hour incubation, read-out: EC50 (doxorubicin alone)): 0.092 µM
- EC50 (HEK-Mock cells; 5061DOX assay 1, 72 hour incubation, read-out: EC50 (doxorubicin alone)): 0.092 µM
- EC50 (OVCAR-3; [4]): 1.7 µM
- EC50 (SK-OV-3; [4]): 0.44 µM
- EC50 (HT-29): 0.4 µM
- EC50 (HEK-mFAP): 0.2 µM
- EC50 (BxPC-3): 3.1 µM
